Results from patent US7977387B2, “Aminobenzophenone compounds” (Leo Pharma A/S, priority 2003, dated 2011).

How the values were obtained:
[1] = system: LPS induced TNF-α response; assay: In vivo screening model of LPS induced TNF-α response in mice; settings: Mus musculus, mice (C3H/HeN), dosed 1 hour prior to LPS, plasma TNF-α 80-90 minutes after LPS, vs LPS treated control group, read-out: In vivo inhibition of LPS induced TNF-α production (in %)
Method: In Vivo Screening Model of LPS Induced TNF-α Response in Mice
To study the effect of compounds of the present invention in vivo, an in vivo screening model of LPS induced TNF-α response in mice was set up as follows: Groups of 6 mice (C3H/HeN, female, about 8 weeks (20 g), Bomholtgaard) were dosed with test compounds in suspension vehicle 1 hour prior to LPS administration (LPS from E. coli 055:B5, L-4005, Sigma). At time 0, the mice were dosed ip with 1.0 mg LPS/kg. After anesthetization with Hypnorm/Dormicum, the mice were bled from the periorbital venous plexus 80-90 minutes after LPS administration. The blood samples were sampled in EDTA stabilised tubes and centrifuged at 4000 rpm for 10 minutes at 4° C. The plasma level of TNF-α was analysed by ELISA. Compound 156 of WO 98/32730 was used as reference compound. The plasma level of TNF-α was determined using a sandwich ELISA. Microtiter plates were coated with a monoclonal antibody against mouse TNF-α, washed and blocked with a casein buffer. Samples of mouse TNF-α recombinant standards were added to the wells of the microtiter plates and incubated. All standards were tested in triplicate, all plasma samples in single. After sample and standard incubation, the plates were washed and incubated with biotinylated polyclonal secondary antibody against mouse TNF-α and washed. Enzyme conjugate was added to all wells and incubated. Substrate was added and the enzyme/substrate reaction stopped after 15 minutes at room temperature with 1M H2SO4. The colour development (OD) was measured at 450 nm on an ELISA reader and the background OD at 620 nm was subtracted. […] The results of the tested compounds are indicated as a percentage inhibition compared to an LPS treated control group. Compounds were tested at 10 mg/kg. The Mann-Whitney test was used to compare drug treated groups to the LPS treated control group (p<0.05).

[2] = system: TNF-α; assay: Inhibition of TNF-α secretion in LPS stimulated peripheral blood mononuclear cells; assay type: cell-based; settings: PBMC; LPS stimulated human peripheral blood mononuclear cells, 18 hours, ELISA; read-out: The median inhibition concentration (IC50, nM) of TNF-α
Method: (§1) To study the effect of compounds of the present invention in vitro, the inhibition of IL-1β and TNF-α secretion was determined using the following procedure:
(§2) Cytokine production was measured in the media from lipopolysaccharide (LPS) stimulated peripheral blood mononuclear cells. The mononuclear cells were isolated from human peripheral blood by Lymphoprep® (Nycomed, Norway) fractionation and suspended in RPMI 1640 (growth medium) with foetal calf serum (FCS, 2%), at a concentration of 5×10^5 cells/ml. The cells were incubated in 24-well tissue culture plates in 1 ml aliquots. Test compounds were dissolved in dimethylsulfoxide (DMSO, 10 mM) and were diluted with the medium. Compounds were added to the cells for 30 minutes, then LPS ([…] final concentration) was added. The plates were incubated for 18 hours, and the concentration of IL-β and TNF-α in the medium was determined by enzyme-linked immunosorbent assays. The median inhibitory concentrations (IC50) of the compounds were calculated.

[3] = system: IL-1β; assay: Inhibition of IL-1β secretion in LPS stimulated peripheral blood mononuclear cells; assay type: cell-based; settings: PBMC; LPS stimulated human peripheral blood mononuclear cells, 18 hours, ELISA; read-out: The median inhibition concentration (IC50, nM) of IL-1β
Method: as §1, §2

Compound	inhibition at 10 mg/kg [1] [%]	IC50 [2] [nM]	IC50 [3] [nM]
COc1ccc(C(=O)NCC(F)F)cc1C(=O)c1ccc(Nc2ccc(F)cc2)cc1Cl [Compound 196, 3-[2-Chloro-4-(4-fluoro-phenylamino)-benzoyl]-N-(2,2-difluoro-ethyl)-4-methoxy-benzamide]	66	1	3.2
Cc1cc(Br)ccc1Nc1ccc(C(=O)c2cc(C(=O)NCCO)ccc2C)c(Cl)c1 [Compound 114, 3-[4-(4-Bromo-2-methylphenylamino)-2-chlorobenzoyl]-N-(2-hydroxyethyl)-4-methylbenzamide]	72	0.4	2.5
CCNC(=O)c1ccc(C)c(C(=O)c2ccc(Nc3ccccc3N)cc2Cl)c1 [Compound 117, 3-[4-(2-Aminophenylamino)-2-chlorobenzoyl]-N-ethyl-4-methylbenzamide]	71	1	4
Cc1ccc(C(=O)NCC(C)O)cc1C(=O)c1ccc(Nc2ccc(F)cc2F)cc1Cl (stereo not shown) [Compound 151, 3-[2-Chloro-4-(2,4-difluoro-phenylamino)-benzoyl]-N-(2-hydroxy-propyl)-4-methyl-benzamide]	99	0.4	1.8
Cc1ccccc1C(=O)c1ccc(Nc2ccccc2N)cc1Cl [Ref. comp. a, 4-(2-aminophenylamino)-2-chloro-2′-methylbenzophenone, reference compound]	23	–	–
Cc1ccc(C(=O)O)cc1C(=O)c1ccc(Nc2ccc(F)cc2F)cc1Cl [Compound 424, 3-[2-Chloro-4-(2,4-difluorophenylamino)benzoyl]-4-methylbenzoic acid]	44	–	–
COc1ccc(C(=O)NCCF)cc1C(=O)c1ccc(Nc2c(F)cccc2F)cc1Cl [Compound 174]	64	2	3.2
Cc1ccc(C(=O)NCC(F)(F)F)cc1C(=O)c1ccc(Nc2ccc(F)cc2F)cc1Cl [Compound 148, 3-[2-Chloro-4-(2,4-difluoro-phenylamino)-benzoyl]-4-methyl-N-(2,2,2-trifluoro-ethyl) benzamide]	71	0.2	0.6
Cc1ccc(NC(=O)NC2CCCCC2)cc1C(=O)c1ccc(Nc2ccc(F)cc2F)cc1Cl [Compound 266, 1-{3-[2-Chloro-4-(2,4-difluoro-phenylamino)-benzoyl]-4-methyl-phenyl}-3-cyclohexyl-urea]	54	0.4	0.9
Cc1ccc(C(=O)NCCF)cc1C(=O)c1ccc(Nc2ccc(F)cc2F)cc1Cl [Compound 147, 3-[2-Chloro-4-(2,4-difluoro-phenylamino)-benzoyl]-N-(2-fluoro-ethyl)-4-methyl-benzamide]	89	0.8	2.5
CCC(CO)NC(=O)c1ccc(C)c(C(=O)c2ccc(Nc3ccc(F)cc3F)cc2Cl)c1 (stereo not shown) [Compound 153, 3-[2-Chloro-4-(2,4-difluoro-phenylamino)-benzoyl]-N-(1-hydroxymethyl-propyl)-4-methyl-benzamide]	86	1.6	8.9
COc1ccc(C(=O)NCC(O)CO)cc1C(=O)c1ccc(Nc2ccccc2)cc1Cl (stereo not shown) [Compound 202, 3-(2-Chloro-4-phenylamino-benzoyl)-N-(2,3-dihydroxy-propyl)-4-methoxy-benzamide]	67	2	5
CSCCC(=O)Nc1ccc(C)c(C(=O)c2ccc(Nc3ccc(F)cc3F)cc2Cl)c1 [Compound 251, N-{3-[2-Chloro-4-(2,4-difluoro-phenylamino)-benzoyl]-4-methyl-phenyl}-3-methylsulfanyl-propionamide]	49	0.4	1.1
Cc1ccc(C(=O)NCCCO)cc1C(=O)c1ccc(Nc2ccc(F)cc2F)cc1Cl [Compound 155, 3-[2-Chloro-4-(2,4-difluoro-phenylamino)-benzoyl]-N-(3-hydroxy-propyl)-4-methyl-benzamide]	91	0.2	0.6
C=CCNC(=O)c1ccc(C)c(C(=O)c2ccc(Nc3ccc(F)cc3F)cc2Cl)c1 [Compound 170, N-Allyl-3-[2-chloro-4-(2,4-difluoro-phenylamino)-benzoyl]-4-methyl-benzamide]	87	2.5	3.2
Cc1ccc(NC(=O)NCCO)cc1C(=O)c1ccc(Nc2ccc(F)cc2F)cc1Cl [Compound 260, 1-{3-[2-Chloro-4-(2,4-difluoro-phenylamino)-benzoyl]-4-methyl-phenyl}-3-(2-hydroxy-ethyl)-urea]	95	0.5	1.8
CCOC(=O)CNC(=O)Nc1ccc(C)c(C(=O)c2ccc(Nc3ccc(F)cc3F)cc2Cl)c1 [Compound 261, (3-{3-[2-Chloro-4-(2,4-difluoro-phenylamino)-benzoyl]-4-methyl-phenyl}-ureido)-acetic acid ethyl ester]	–	1	2.2
Cc1ccc(NC(=O)CC2NC(=O)NC2=O)cc1C(=O)c1ccc(Nc2ccc(F)cc2F)cc1Cl (stereo not shown) [Compound 248, N-{3-[2-Chloro-4-(2,4-difluoro-phenylamino)-benzoyl]-4-methyl-phenyl}-2-(2,5-dioxo-imidazolidin-4-yl)-acetamide]	–	0.7	1
Cc1ccc(C(=O)NCCO)cc1C(=O)c1ccc(Nc2cccc(F)c2)cc1Cl [Compound 193, 3-[2-Chloro-4-(3-fluoro-phenylamino)-benzoyl]-N-(2-hydroxy-ethyl)-4-methyl-benzamide]	–	2.5	4
Cc1ccc(NC(=O)C2CC(=O)NC(=O)N2)cc1C(=O)c1ccc(Nc2ccc(F)cc2F)cc1Cl (stereo not shown) [Compound 249, 2,6-Dioxo-hexahydro-pyrimidine-4-carboxylic acid {3-[2-chloro-4-(2,4-difluoro-phenylamino)-benzoyl]-4-methyl-phenyl}-amide]	–	1.1	1.6
COc1ccc(C(=O)NCCO)cc1C(=O)c1ccc(Nc2ccccc2)cc1Cl [Compound 195, 3-(2-Chloro-4-phenylamino-benzoyl)-N-(2-hydroxy-ethyl)-4-methoxy-benzamide]	–	1	2.2
CCNC(=O)Nc1ccc(C)c(C(=O)c2ccc(Nc3ccc(F)cc3F)cc2Cl)c1 [Compound 269, 1-{3-[2-Chloro-4-(2,4-difluoro-phenylamino)-benzoyl]-4-methyl-phenyl}-3-ethyl-urea]	–	0.6	0.8
COc1cccc(NC(=O)Nc2ccc(C)c(C(=O)c3ccc(Nc4ccc(F)cc4F)cc3Cl)c2)c1 [Compound 262, 1-{3-[2-Chloro-4-(2,4-difluoro-phenylamino)-benzoyl]-4-methyl-phenyl}-3-(3-methoxy-phenyl)-urea]	–	0.6	2
CCOC(=O)CNC(=O)CNC(=O)c1ccc(C)c(C(=O)c2ccc(Nc3ccc(Cl)cc3F)cc2Cl)c1 [Compound 122, (2-{3-[2-Chloro-4-(4-chloro-2-fluoro-phenylamino)-benzoyl]-4-methyl-benzoylamino}-acetylamino)-acetic acid ethyl ester]	–	0.2	0.5
Cc1cc(F)ccc1Nc1ccc(C(=O)c2cc(C(=O)NCc3ccncc3)ccc2C)c(Cl)c1 [Compound 109]	–	3.2	4
CCOC(=O)CNC(=O)CNC(=O)c1ccc(C)c(C(=O)c2ccc(Nc3ccc(F)cc3F)cc2Cl)c1 [Compound 169, (2-{3-[2-Chloro-4-(2,4-difluoro-phenylamino)-benzoyl]-4-methyl-benzoylamino}-acetylamino)-acetic acid ethyl ester]	–	0.4	0.4
